Reference: patent US9486507B2, “Pro-coagulant compounds and methods of use thereof” (priority 2011, dated 2016)

Legend:
FIXa [1] = target: T1, FIXa (Homo sapiens, UniProt P00740); test: Km/Kcat of FIXa for the substrate FX (FXa generation assay); type: biochemical; parameters: purchased Haematologic Technologies; conditions: compound 1 3 μM, compounds 3, 4, 5 1 μM, compound C 10 μM; for Km / kcat: hFIXa 10 nM, FX 10-1000 nM, PL, CaCl2; for Δ kcat: relative to buffer (1.0)
Method: To determine the Km and Kcat of FIXa or FVIIa for the substrate FX, the FXa generation assay described above was used with the following modifications. […] Reactions were set up with varying concentrations of FX ranging between 400 and 0.8 nM and the rates of FXa generation were determined for each peptide at the different FX concentrations tested as described above. […] The catalytic constant (Kcat) was calculated by normalizing the Vmax to the enzyme concentration.
FIXa was used at 10 nM, and FX was used at 10-1000 nM. The assay was performed in the presence of phospholipids (PL) and calcium chloride.

[2] = test system: 10% FVIII-deficient human plasma; test: Modified activated partial thromboplastin time (aPTT*) assay; type: biochemical
Method: For the activated Partial Thromboplastin Time (aPTT) assay peptides to be tested were first diluted in 10% FVIII-deficient human plasma. For the aPTT* the peptides were diluted in 10% FVIII-deficient human plasma that contained traces of hFIXa (anywhere between 0 and 8.8 nM hFIXa depending on the assay) in Tris/NaCl/BSA buffer. The peptides were incubated for 10 minutes at room temperature and then assayed for clotting on a Sysmex instrument that recorded the clotting time observed for each sample. The times were compared to those of a standard curve derived from standards with known FVIII activity (U/mL) in order to determine the clotting outcome.

[3] = test system: FVIII deficient human plasma; test: Rotational thromboelastometry (ROTEM) in FVIII-deficient human plasma; type: biochemical; conditions: for Clotting time, sec (avg.) / α-angle, degrees (avg.): human HemA plasma, lyophilized platelets, 10 fM lipTF
FIXa [4] = target: T1, FIXa; test: FXa generation assay with human FIXa; type: biochemical; parameters: purchased Haematologic Technologies; conditions: for Vmax: class symbols
FIXa [5] = target: T1, FIXa; test: Incubation with FIXa in FXa generation assay buffer, LC-MS; type: biochemical; conditions: compound 3 100 μM; FIXa 0, 10 nM, 1 μM; with or without BSA; 3 hours
Method: The mixtures were then analyzed by LC-MS.

FIXa [6] = target: T1, FIXa; test: FXa generation assay with compound 3, phospholipid and Gla-domain dependency; type: biochemical; conditions: compound 3 1 μM
Text: Formation of FXa was monitored using a chromogenic substrate as described in the FXa generation assay directly above (see b.1.).

[7] = test system: FVIII deficient human plasma; test: Thrombin generation assay (TGA) in FVIII-deficient plasma; type: biochemical; parameters: key to Thrombin Above Baseline (nM): 1-10 nM (1) or 1-29 nM (2) (+); 11-20 nM (1) or 30-59 nM (2) (++); 21-30 nM (1) or 60-90 nM (2) (+++); >30 nM (1) or >90 nM (2) (++++); At or about baseline (−); conditions: HRF FVIII-deficient plasma (1)
mouse FIXa (mFIXa) = mouse FIXa (mFIXa) (Mus musculus, UniProt P16294); test: FXa generation assay with mouse FIXa; type: biochemical; conditions: mFIXa compared to hFIXa
Text: The data confirms that the peptide was selected for binding to hFIXa.

[8] = test system: purified recombinant human coagulation factors; test: Thrombin generation assay using purified hemostatic components; type: biochemical; conditions: compounds 1 μM; FVIII 0.1 or 1 IU/mL (FIG. 5)
[9] = target: T2, recombinant human factor IXa (hFIXa) (Homo sapiens, UniProt P00740); test: Hydrogen/deuterium exchange mass spectrometry (H/DX-MS) of hFIXa; type: binding; conditions: hFIXa 1 μM with vs without compound 4 12 μM
T2 construct: purchased Hematologic Technologies
Method: Hydrogen/deuterium exchange mass spectrometry (H/DX-MS) was utilized to study the higher-order structural analysis of recombinant human factor IXa (hFIXa) in combination with and without compound 4. The general method can be found in the following references: Engen and Smith (2001) Anal. Chem. 73, 256A-265A.; Wales and Engen (2006) Mass Spectrum. Rev. 25, 158-170.
FIXa samples were equilibrated at ambient temperature (20±1° C.) for 1 hour before labeling with deuterated buffer (reaction buffers described above). The samples were then diluted 1:15 with deuterated buffer and incubated, allowing hydrogen exchange to occur for various amounts of time (10 seconds, 1, 10, 60, and 240 minutes), before the reaction was quenched with a 1:1 dilution of 200 mM citrate, 8 M guanidinium HCl, and 0.5 M TCEP, pH 2.33. Quenched samples were then incubated for 20 seconds before being further diluted 1:1 with 0.1% formic acid and immediately injected into the LC-MS system for analysis.
Approximately 7 μg of exchanged/quenched FIXa was injected onto an immobilized pepsin column where the digestion and peptide trapping were performed for 3 minutes with a flow rate of 0.1 mL/min in 0.1% formic acid at 10° C. […] Mass spectra were acquired and peptic peptides were identified using a combination of exact mass and MS, aided by Waters Identity software (Silva J C et al., 2006. Absolute quantification of proteins by LCMSE: a virtue of parallel MS acquisition. Mol Cell Proteomics, 5(1): p144). […] The amount of deuterium in each peptide was determined by subtracting the mass of the undeuterated peptide from the mass of the deuterated peptide, incubated at various HDX time points (which were uncorrected for any back exchange). […]
The difference in deuterium exchange between FIXa and FIXa with compound 4 was determined by subtracting the mass of each FIXa peptide from the mass of the corresponding FIXa with compound 4. […] The sum of these differences, across all time points, was calculated. […]

[10] = target: T3, FXa or the prothrombinase complex (Homo sapiens, UniProt P00742); test: FXa / prothrombinase activity in purified thrombin generation assay; type: biochemical; conditions: 1 μM; FXa 0.05 ug/mL, with or without FV
T3 construct: Under these conditions FIXa cleaves the zymogen FX into the active form FXa
Method: In another experiment it was determined whether or not the compounds of the present disclosure directly enhance the activity of FXa or the prothrombinase complex.

thrombin = thrombin (Homo sapiens, UniProt P00734); conditions: thrombin 1.4 nM, conjugate A 10 μM, PBS, 37° C.
Method: Conjugate A (21 μL, 0.24 mM) in water was added to 476.5 μL PBS. […] The mixture was incubated at 37° C. Aliquots (60 μL) at various time points were quenched with 1 μL of hirudin (10 μM) and injected into the HPLC (C-18 column, CH3CN/H2O, 0 to 70% over 12 minutes, 60° C. 0.5 mL/min, ? =280 nm).

[11] = aPTT*, D-amino acid scan of compound 1, listed as WT
[12] = FXa generation assay, 10 nM hFIXa, 100 nM hFX

Substance: RRAPGKLQCLASYCWLFWTGIA [Compound 3]
- Km (FIXa [1]): 0.016 ± 0.0035 µM
- kcat (FIXa [1]): 0.000295 s⁻¹
- Δ kcat (FIXa [1]): 197
- Clotting time ([2]; aPTT*, exogenous hFIXa 0.5 nM): 115.2 s
- Clotting time, sec ([2]; aPTT*, exogenous hFIXa 0.5 nM): 115.6; sec
- Clotting time ([2]; aPTT*, exogenous hFIXa 8.8 nM): 41.9 s
- Clotting time, sec ([2]; aPTT*, exogenous hFIXa 8.8 nM): 45.4; sec
- clotting time and α-angle with neutralizing anti-FVIII antibody ([3]; 10 uM, polyclonal sheep IgG against human FVIII, 1:100): independent of residual FVIII
- clotting time compared with FVIII (100% FVIII = 1 IU/mL) ([3]; compound 3 at 5 μM, faster than): > 100 % FVIII
- α-angle corresponding to FVIII ([3]; compound 3 at 10 μM): about 20 % FVIII
- Clotting time, sec (avg.) ([3]; 0.625 μM): 792 s
- α-angle, degrees (avg.) ([3]; 0.625 μM): 29 degrees
- Clotting time, sec (avg.) ([3]; 2.5 μM): 452 s
- α-angle, degrees (avg.) ([3]; 2.5 μM): 33 degrees
- Clotting time, sec (avg.) ([3]; 5 μM): 329 s
- α-angle, degrees (avg.) ([3]; 5 μM): 38 degrees
- Clotting time, sec (avg.) ([3]; 10 μM): 205 s
- α-angle, degrees (avg.) ([3]; 10 μM): 51 degrees
- Vmax (FIXa [4]; FXa generation assay using human FIXa): (++++) ((++++)>3)
- Vmax (mOD/min min) (FIXa [4]; PL: No): 2.77 mOD/min min
- Vmax (mOD/min min) (FIXa [4]; PL: Yes): 3.90 mOD/min min
- substrate for FIXa (LC-MS) (FIXa [5]): not a substrate for FIXa
- Percentage of control (FXa generation) (FIXa [6]; +PL): 100%
- Percentage of control (FXa generation) (FIXa [6]; +PL +anti-FIX IgG (Gla)): 58.0%
- Percentage of control (FXa generation) (FIXa [6]; −PL): 90%

Substance: KLTCLASYCWLF [Compound 1]
- Thrombin Above Baseline (nM) ([7]; 2.5 μM): −
- Thrombin Above Baseline (nM) ([7]; 5 μM): −
- Thrombin Above Baseline (nM) ([7]; 10 μM): −
- Thrombin Above Baseline (nM) ([7]; 20 μM): −
- Vmax (mouse FIXa (mFIXa)): greatly reduced
- Km (FIXa [1]): 0.024 ± 0.0048 µM
- kcat (FIXa [1]): 0.00024 s⁻¹
- Δ kcat (FIXa [1]): 160
- Clotting time ([2]; aPTT* with FIXa, 5 μM): 47.9 s
- Clotting time, sec ([2]; aPTT* with FIXa, 5 μM): 47.3; sec
- Clotting time ([2]; aPTT* with FIXa, 10 μM): 43.3 s
- Clotting time, sec ([2]; aPTT* with FIXa, 10 μM): 44.2; sec
- Clotting time ([2]; aPTT* with FIXa, 20 μM): 43.8 s
- Clotting time, sec ([2]; aPTT* with FIXa, 20 μM): 43.5; sec
- Clotting time [2, 11]: 47.8 s
- Clotting time, sec [2, 11]: 47.9; sec
- Clotting time ([2]; aPTT*, FIXa 1 nM): 107.4 s
- Clotting time, sec ([2]; aPTT*, FIXa 1 nM): 105.8; sec
- Clotting time ([2]; aPTT*, FIXa 2 nM): 82.8 s
- Clotting time, sec ([2]; aPTT*, FIXa 2 nM): 84.4; sec
- Clotting time ([2]; aPTT*, FIXa 4 nM): 50.6 s
- Clotting time, sec ([2]; aPTT*, FIXa 4 nM): 50.9; sec
- Clotting time ([2]; aPTT*, FIXa 8 nM): 40.6 s
- Clotting time, sec ([2]; aPTT*, FIXa 8 nM): 40.1; sec
- Vmax (FIXa [4]; [12]): (+++) ((+++)>2)
- Vmax (mOD/min min) (FIXa [4]; PL: No): 2.60 mOD/min min
- Vmax (mOD/min min) (FIXa [4]; PL: Yes): 3.98 mOD/min min

Substance: RRAPGKLTCLASYCWLFWTGIA [Compound 4]
- thrombin generation [8]: induce thrombin generation
- Km (FIXa [1]): 0.011 ± 0.0027 µM
- kcat (FIXa [1]): 0.000285 s⁻¹
- Δ kcat (FIXa [1]): 190
- FIXa peptide with most important significant difference in H/D exchange [9]: heavy chain peptide 177-185
- difference index DI(1) [9]: 2
- difference index DI(2) [9]: 0
- Vmax (FIXa [4]; [12]): (+++) ((+++)>2)
- catalytic activity of FXa or the prothrombinase complex [10]: did not substantially increase the catalytic activity of FXa or the prothrombinase complex

Substance: Cys(Acm)-Gly-Gly-Gly-Gly-Dphe-Pip-Arg-PABC-rRAPGKLTCLASYCWLFWTGIA-NH2 (Disulfide) [conjugate A]
- incubation time to full cleavage by thrombin (thrombin): about 60 min
